# Assay results as given in ChEMBL document CHEMBL1201862, “PubChem BioAssay data set” (2004).
# The source made the active and inactive calls. For most assays here, no stated cut-off is given here; in the data, actives have a measured EC50 and inactives only a lower limit.
# Legend:
# Paired box protein Pax-8 = Paired box protein Pax-8 (Homo sapiens, UniProt Q06710); experiment: inhibitors of PAX8-driven TPO luciferase reporter, dose response, RMG-I cells, cherry-pick (AID 687027); format: functional, cell-based;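 further: luciferase reporter driven by Pax8 target thyroperoxidase promoter measured by SteadyGlo luminescence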
# [1] = tested on: Streptococcus sp. 'group A'; experiment: growth inhibition of control SK(-) GAS strain, dose response, counter-screen for streptokinase expression inhibitor project, luminescence, kanamycin, BacTiterGlo, confirmation (AID 1900); format: functional, organism-based
# Streptokinase A = target: T1, Streptokinase A (Streptococcus pyogenes serotype M1, UniProt P10520); experiment: S. pyogenes streptokinase expression inhibitors, potency, dose response, plasminogen activation absorbance, OD405 (AID 1914); format: functional, Streptococcus pyogenes M1 GAS;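 further: secreted streptokinase activity via plasminogen activation per viability signal from cell pellet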
# T1 sequence (P10520 whole entry): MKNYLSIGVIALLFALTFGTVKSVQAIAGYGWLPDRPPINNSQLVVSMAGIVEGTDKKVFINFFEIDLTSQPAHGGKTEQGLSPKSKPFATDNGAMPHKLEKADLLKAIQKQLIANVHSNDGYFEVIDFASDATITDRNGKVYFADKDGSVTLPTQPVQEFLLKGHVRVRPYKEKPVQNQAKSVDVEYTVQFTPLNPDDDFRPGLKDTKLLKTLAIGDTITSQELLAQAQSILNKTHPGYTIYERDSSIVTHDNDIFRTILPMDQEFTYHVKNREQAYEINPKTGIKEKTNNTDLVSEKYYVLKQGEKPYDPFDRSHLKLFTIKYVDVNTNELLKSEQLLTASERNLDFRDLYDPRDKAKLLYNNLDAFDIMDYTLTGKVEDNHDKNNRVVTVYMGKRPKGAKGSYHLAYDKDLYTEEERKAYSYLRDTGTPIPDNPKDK
# Streptococcus = experiment: Group A Streptococcus viability loss, dose response, counter-screen for streptokinase expression inhibitor project, luminescence, BacTiterGlo (AID 1915); format: functional, organism-based;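 further: potency for reduction of bacterial viability or growth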
# [2] = Luminescence Cell-Based Dose Response HTS to Identify Inhibitors of 5'UTR Stem-Loop Driven Prion Protein mRNA Translation in H4 Neuroglioblastoma Cells. [Related pubchem assays: 1827 (Project Summary), 1813 (Primary HTS)]; format: functional
# [3] = inhibitors of firefly luciferase expression or activity, dose response, H4 neuroglioma cells, luminescence (AID 1990); format: functional, cell-based
# [4] = inhibitors of SNCA 5'UTR-driven reporter translation, confirmation, H4 neuroglioma cells, luminescence (AID 1988); format: functional, cell-based
# [5] = NIH-3T3 fibroblast cytotoxicity, dose response, cytotoxicity control, cell-based, fluorescence, Alamar Blue, secondary assay (AID 2327); format: functional;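 further: NIH-3T3 mouse fibroblasts cultured with fluconazole at 8 µg/mL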
# [6] = Luminescence Cell-Based Dose Response HTS to Identify Activators of Luciferase Translation or Activity in H4 […] Cells. [Related pubchem assays: 1829 (Project Summary), 1814 (Primary HTS)]; format: functional
# [7] = Luminescence Cell-Based Dose Confirmation HTS to Identify Activators of 5'UTR Stem-Loop Driven Alpha-Synuclein mRNA Translation in H4 Neuroglioblastoma Cells. [Related pubchem assays: 1829 (Project Summary), 1814 (Primary HTS)]; format: functional
# H4 = experiment: Luminescence Cell-Based Dose Response HTS to Identify Activators of 5'UTR Stem-Loop Driven Prion Protein mRNA Translation in H4 Neuroglioblastoma Cells. [Related pubchem assays: 1829 (Project Summary), 1814 (Primary HTS)]; format: functional; conditions: Homo sapiens
# Cytochrome P450 2D6 = Cytochrome P450 2D6 (Homo sapiens, UniProt P10635);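 further: CYP2D6 member of a cytochrome P450 panel assay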
# Cytochrome P450 1A2 = target: T2, Cytochrome P450 1A2 (Homo sapiens, UniProt P05177);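 further: PubChem cytochrome P450 panel assay, CYP1A2 panel member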
# T2 sequence (P05177 whole entry): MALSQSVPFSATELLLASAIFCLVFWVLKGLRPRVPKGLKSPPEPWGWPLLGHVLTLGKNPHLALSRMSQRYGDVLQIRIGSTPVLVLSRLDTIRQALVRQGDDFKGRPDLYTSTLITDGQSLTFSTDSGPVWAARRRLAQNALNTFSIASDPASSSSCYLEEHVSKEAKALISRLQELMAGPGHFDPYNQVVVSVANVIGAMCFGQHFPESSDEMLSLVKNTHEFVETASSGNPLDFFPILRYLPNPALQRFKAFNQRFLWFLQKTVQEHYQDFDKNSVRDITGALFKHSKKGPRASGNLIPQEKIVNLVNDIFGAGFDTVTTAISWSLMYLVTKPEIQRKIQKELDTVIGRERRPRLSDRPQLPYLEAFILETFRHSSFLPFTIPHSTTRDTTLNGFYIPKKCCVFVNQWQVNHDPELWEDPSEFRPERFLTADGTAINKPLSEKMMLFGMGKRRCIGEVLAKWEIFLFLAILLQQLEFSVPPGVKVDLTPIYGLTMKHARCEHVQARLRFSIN
# Cytochrome P450 2C9 = Cytochrome P450 2C9 (Homo sapiens, UniProt P11712)
# Protein skinhead-1 = target: T3, Protein skinhead-1 (Caenorhabditis elegans, UniProt P34707); format: functional
# T3 sequence (P34707 whole entry): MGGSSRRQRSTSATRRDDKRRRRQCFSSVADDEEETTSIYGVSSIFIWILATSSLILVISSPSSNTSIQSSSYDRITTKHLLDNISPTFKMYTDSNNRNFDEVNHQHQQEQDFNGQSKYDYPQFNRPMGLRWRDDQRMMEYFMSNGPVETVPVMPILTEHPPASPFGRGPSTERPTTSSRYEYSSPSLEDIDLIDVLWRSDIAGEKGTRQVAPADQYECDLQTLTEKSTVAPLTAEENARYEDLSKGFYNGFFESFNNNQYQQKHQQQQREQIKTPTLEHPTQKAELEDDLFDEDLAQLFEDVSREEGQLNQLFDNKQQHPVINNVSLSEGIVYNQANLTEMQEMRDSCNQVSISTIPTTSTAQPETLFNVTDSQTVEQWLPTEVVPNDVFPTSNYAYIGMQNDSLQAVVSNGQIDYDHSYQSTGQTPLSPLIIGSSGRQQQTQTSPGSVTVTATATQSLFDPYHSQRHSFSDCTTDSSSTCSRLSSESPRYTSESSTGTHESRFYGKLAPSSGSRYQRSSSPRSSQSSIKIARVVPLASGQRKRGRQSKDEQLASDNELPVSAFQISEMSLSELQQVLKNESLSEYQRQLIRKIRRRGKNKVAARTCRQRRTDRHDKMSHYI
# [8] = C. albicans growth with fluconazole, confirmation, fluorescence, retest (AID 2467); format: functional, cell-based
# Cytochrome P450 3A4 = Cytochrome P450 3A4 (Homo sapiens, UniProt P08684);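 further: CYP3A4 tested as one member of a cytochrome P450 panel screen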
# [9] = HEp-2 cell cytotoxicity, dose response, cytotoxicity control for RSV inhibitor project, HTS (AID 2410); format: functional; conditions: human respiratory syncytial virus
# Chain of Paired box protein Pax-8 (Q06710 whole entry): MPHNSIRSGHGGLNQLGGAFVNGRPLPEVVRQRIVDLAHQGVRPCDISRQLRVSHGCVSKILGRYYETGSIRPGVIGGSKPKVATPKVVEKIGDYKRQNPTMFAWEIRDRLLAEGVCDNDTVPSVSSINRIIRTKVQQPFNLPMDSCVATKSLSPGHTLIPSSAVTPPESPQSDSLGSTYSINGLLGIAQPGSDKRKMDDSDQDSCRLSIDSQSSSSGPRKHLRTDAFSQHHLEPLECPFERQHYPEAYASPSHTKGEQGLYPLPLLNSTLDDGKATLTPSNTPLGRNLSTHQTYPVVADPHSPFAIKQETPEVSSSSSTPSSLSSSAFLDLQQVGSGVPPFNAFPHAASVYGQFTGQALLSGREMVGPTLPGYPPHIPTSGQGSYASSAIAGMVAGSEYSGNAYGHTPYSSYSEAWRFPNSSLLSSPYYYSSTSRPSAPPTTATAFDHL
# Chain of Cytochrome P450 2D6 (P10635 whole entry): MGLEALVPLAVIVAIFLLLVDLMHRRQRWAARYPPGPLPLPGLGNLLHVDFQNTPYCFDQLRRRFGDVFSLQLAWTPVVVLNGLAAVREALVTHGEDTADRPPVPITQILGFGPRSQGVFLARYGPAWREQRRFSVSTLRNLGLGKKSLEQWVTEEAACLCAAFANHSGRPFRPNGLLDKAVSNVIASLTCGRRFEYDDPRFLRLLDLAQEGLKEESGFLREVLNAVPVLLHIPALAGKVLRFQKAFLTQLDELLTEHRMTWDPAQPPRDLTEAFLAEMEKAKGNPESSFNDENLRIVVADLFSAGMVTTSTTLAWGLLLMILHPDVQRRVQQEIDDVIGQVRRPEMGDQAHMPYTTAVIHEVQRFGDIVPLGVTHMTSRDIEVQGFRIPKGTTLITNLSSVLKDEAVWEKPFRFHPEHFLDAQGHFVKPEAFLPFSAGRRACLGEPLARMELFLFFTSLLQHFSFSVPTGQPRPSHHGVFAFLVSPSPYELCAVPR
# Chain of Cytochrome P450 2C9 (P11712 whole entry): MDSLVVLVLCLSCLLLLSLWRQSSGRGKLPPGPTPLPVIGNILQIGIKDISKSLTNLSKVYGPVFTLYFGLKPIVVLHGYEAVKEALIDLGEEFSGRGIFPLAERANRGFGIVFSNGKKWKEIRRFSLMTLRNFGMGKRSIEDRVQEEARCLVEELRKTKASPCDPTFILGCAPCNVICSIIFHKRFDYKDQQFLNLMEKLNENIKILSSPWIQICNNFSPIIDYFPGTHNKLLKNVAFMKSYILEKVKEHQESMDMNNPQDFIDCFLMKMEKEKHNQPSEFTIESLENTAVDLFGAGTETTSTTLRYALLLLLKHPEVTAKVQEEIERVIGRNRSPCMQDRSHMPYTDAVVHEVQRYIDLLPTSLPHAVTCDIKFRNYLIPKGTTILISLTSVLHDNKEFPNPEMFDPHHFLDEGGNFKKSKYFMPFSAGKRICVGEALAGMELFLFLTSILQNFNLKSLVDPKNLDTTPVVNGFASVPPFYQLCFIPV
# Chain of Cytochrome P450 3A4 (P08684 whole entry): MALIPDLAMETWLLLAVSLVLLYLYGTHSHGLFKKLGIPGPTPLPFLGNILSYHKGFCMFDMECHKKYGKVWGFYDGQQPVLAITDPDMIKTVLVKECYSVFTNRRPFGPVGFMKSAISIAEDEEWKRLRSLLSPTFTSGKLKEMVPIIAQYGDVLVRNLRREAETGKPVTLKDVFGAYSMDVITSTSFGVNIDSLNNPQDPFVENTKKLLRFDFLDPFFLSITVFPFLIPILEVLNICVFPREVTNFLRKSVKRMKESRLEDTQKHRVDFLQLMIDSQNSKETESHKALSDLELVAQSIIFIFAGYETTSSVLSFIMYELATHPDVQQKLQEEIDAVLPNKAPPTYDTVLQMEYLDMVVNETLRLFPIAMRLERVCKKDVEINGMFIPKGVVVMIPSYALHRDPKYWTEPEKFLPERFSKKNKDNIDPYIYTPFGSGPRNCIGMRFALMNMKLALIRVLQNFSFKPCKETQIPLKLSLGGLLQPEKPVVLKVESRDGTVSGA
smiles,measurement,setting,value
N#Cc1ccc2nc(-c3ccc(CN4CCC(n5c(O)nc6ccccc65)CC4)cc3)c(-c3ccccc3)nc2c1,AC50,Paired box protein Pax-8,8.95 µM (active)
COc1ccc(/C=C/C(=O)NC(=S)NNC(=O)Cc2cccs2)cc1,EC50,[1],2.45 µM (active)
same,EC50,Streptokinase A,> 150 µM (not active)
same,EC50,Streptococcus,20.9 µM (active)
Nc1n[nH]c(SCc2cccc(Br)c2)n1,EC50,[2],> 120 µM (not active)
same,EC50,[3],> 120 µM (not active)
same,EC50,[4],> 120 µM (not active)
CCOC(=O)c1cc2c(=O)n3ccccc3nc2n(CCOC)/c1=N\C(=O)c1ccncc1,EC50,[5],115 µM (active)
C[C@@H]1CCCCO[C@@H](CN(C)Cc2ccc(Cl)c(Cl)c2)[C@H](C)CN([C@H](C)CO)C(=O)c2cc(NC(=O)Nc3ccc(C(F)(F)F)cc3)ccc2O1,AC50,Paired box protein Pax-8,2.39 µM (active)
COCCC/N=C(\c1ccco1)n1c(=S)nc(-c2ccco2)n(CCCOC)c1=S,EC50,[6],11.6 µM (active)
same,EC50,[7],11.9 µM (active)
same,EC50,H4,> 120 µM (not active)
COc1ccc(/C=C/C(=O)NC(=S)N2CCN(c3ccccc3OC)CC2)cc1,EC50,[1],> 150 µM (not active)
same,EC50,[6],> 120 µM (not active)
same,EC50,[7],1.67 µM (active)
same,EC50,Streptokinase A,> 150 µM (not active)
same,EC50,H4,7.91 µM (active)
same,EC50,Streptococcus,> 150 µM (not active)
CC(/C=C1\SC(=O)N(CC(=O)Nc2ccc(O)cc2)C1=O)=C\c1ccccc1,EC50,[1],13.8 µM (active)
same,EC50,Streptokinase A,> 150 µM (not active)
same,AC50,Paired box protein Pax-8,64.3 µM (active)
same,EC50,Streptococcus,31.1 µM (active)
C[C@@H]1CCCCO[C@H](CN(C)Cc2ccccc2)[C@H](C)CN([C@H](C)CO)C(=O)c2cc(NC(=O)Nc3ccc(C(F)(F)F)cc3)ccc2O1,AC50,Paired box protein Pax-8,5.05 µM (active)
C/C(=N\NC(=O)c1cc2ccccc2cc1O)c1ccc2c(c1)OCO2,EC50,[1],3.73 µM (active)
same,EC50,Streptokinase A,6.65 µM (active)
same,EC50,Streptococcus,21.9 µM (active)
CCCCCCN(C(=O)CCCN1C(=O)NC(c2ccc(-c3ccccc3)cc2)C(C(=O)OCc2ccccc2)=C1C)C(C)C(=O)NCCCC (centres undefined),AC50,Paired box protein Pax-8,12.2 µM (active)
Clc1ccccc1CNc1nc2ccccc2n2cnnc12,EC50,[2],> 120 µM (not active)
same,EC50,[3],14.2 µM (active)
same,EC50,[4],35.8 µM (active)
Cc1[nH]c2ccccc2c1C(=O)/C=C/c1ccccc1Cl,EC50,[7],7.39 µM (active)
same,EC50,H4,10.1 µM (active)
N=C(c1ccc2ccccc2c1)c1ccccc1Cc1ccccc1,AC50,Cytochrome P450 2D6,3.16 µM (inconclusive)
same,AC50,Cytochrome P450 1A2,0.501 µM (inconclusive)
same,AC50,Cytochrome P450 2C9,7.94 µM (inconclusive)
COc1ccc(C(=O)Nc2ccc(-c3cn4ccsc4n3)cc2)cc1S(=O)(=O)N1CCOCC1,EC50,[2],> 120 µM (not active)
same,EC50,[3],> 120 µM (not active)
same,EC50,[4],60.6 µM (active)
O=C(c1ccccc1)N1CCN2C(=O)c3ccccc3C12c1ccc(Cl)cc1 (centres undefined),EC50,[6],34.9 µM (active)
same,EC50,[7],> 120 µM (not active)
same,EC50,H4,15.4 µM (active)
C=CCSc1ncc(-c2ccccc2)cn1,IC50,Protein skinhead-1,11.4 µM (active)
same,EC50,[6],16 µM (active)
same,EC50,[7],25.3 µM (active)
same,EC50,H4,24.5 µM (active)
NNC(=O)c1ccc(OCC2CC(c3ccc(Cl)cc3)=NO2)cc1 (centres undefined),EC50,[1],> 150 µM (not active)
same,EC50,Streptokinase A,> 150 µM (not active)
same,EC50,Streptococcus,> 150 µM (not active)
N#Cc1cc2cc3c(cc2nc1SCC(=O)N1CCOCC1)OCCO3,EC50,[2],> 120 µM (not active)
same,EC50,[4],5.54 µM (active)
CN(C(=O)CC(NC(=O)c1ccccc1)(c1ccccc1)c1ccccc1)c1ccccc1,EC50,[8],4.72 µM (active)
same,AC50,Cytochrome P450 3A4,0.708 µM (inconclusive)
same,EC50,[5],30.5 µM (active)
"N=C(N)NC(=O)c1nc(Cl)c(N2CCCCCC2)nc1N [N,N-HEXAMETHYLENEAMILORIDE]",CC50,[9],10.5 µM (active)
same,AC50,Cytochrome P450 2D6,39.8 µM (inconclusive)
CCOC(=O)c1cccnc1SCC(=O)NC(C)CC (centres undefined),EC50,[1],> 150 µM (not active)
same,EC50,Streptokinase A,> 150 µM (not active)
same,EC50,Streptococcus,> 150 µM (not active)
COc1ccc(C(=O)C2CCCN(Cc3cccn3-c3ccccn3)C2)c(C)c1 (centres undefined),EC50,[8],0.706 µM (active)
same,EC50,[5],> 160 µM (inactive)
O=C(COc1ccc(Cl)cc1)NC1CCSC1=O (centres undefined),EC50,[5],> 160 µM (inactive)
Cc1ccc(S(=O)(=O)N/N=C2/CC(c3ccccc3)Oc3ccccc32)cc1[N+](=O)[O-] (centres undefined),EC50,[6],> 120 µM (not active)
same,EC50,[7],15.9 µM (active)
same,EC50,H4,13.8 µM (active)
Cc1ccc(S(=O)(=O)N(C)C[C@H]2Oc3ccc(NC(=O)Cc4ccccc4)cc3C(=O)N([C@H](C)CO)C[C@@H]2C)cc1,AC50,Paired box protein Pax-8,29.8 µM (active)
CC(C)OC(=O)c1cccnc1N1CCN(c2cccc(Cl)c2)CC1,EC50,[1],20.3 µM (active)
same,EC50,Streptokinase A,19.3 µM (active)
same,EC50,Streptococcus,> 150 µM (not active)
Cn1ccnc1CN1CCCCC1C(=O)Nc1ccc(Oc2cccnc2)cc1 (centres undefined),EC50,[6],> 120 µM (not active)
same,EC50,[7],> 120 µM (not active)
same,EC50,H4,> 120 µM (not active)
Cc1nn(-c2ccccc2)c(Cl)c1/C=N\NC(=O)c1cnccn1,EC50,[6],14 µM (active)
same,EC50,[7],23.6 µM (active)
same,EC50,H4,15.3 µM (active)
